Our source for the IC50 values is patent publication US20230203060A1 (GENFLEET THERAPEUTICS (SHANGHAI) INC., priority 2020, published 2023).

The IC50 is the concentration that inhibits the measured activity by half.

Bounds are passed on as bounds.

In the assay the test system is A549 cells (KRAS G12S mutant). Kind of assay: Cell proliferation inhibition experiment, 3D spheroid, CellTiter-Glo, A549. The format is cell-based, human. The conditions noted are these: Homo sapiens, A549, 120 h, A549 (KRAS G12S mutant) 3D spheroid, 5 days with compound, CellTiter-Glo; read-out: A549 IC50. In short, it runs like this:
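CellTiter-Glo luminescence after 5 days' compound treatment (3.16-fold series, 0.1% DMSO) of overnight-formed spheroids in 2% FBS medium: H358 seeded at 800 cells/well in RPMI-1640, A549 at 400 cells/well in F-12K. IC50 derived by four-parameter fit of inhibition normalized to DMSO control and blank.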
On the technique in general: In ATP-based viability assays light output follows the ATP content of the culture.
`C=CC(=O)N1CCN2C(=O)c3c(N4CCN(S(C)(=O)=O)C[C@@H]4C)nc(-c4c(O)cccc4F)c(Cl)c3OC[C@H]2C1` [Z318-1, (6aR)-8-acryloyl-1-((S)-2-methyl-4-(methylsulfonyl)piperazin-1-yl)-4-chloro-3-(2-fluoro-6-hydroxyphenyl)-6,6a,7,8,9,10-hexahydro-12H-pyrazino[2,1-c]pyrido[3,4-f][1,4]oxazepin-12-one]: the IC50 came out at 26.3 µM.
Under `C=CC(=O)N1CCN2C(=O)c3c(N4CC(=O)N(CC)C[C@@H]4C)nc(-c4c(O)cccc4F)c(Cl)c3OC[C@H]2C1` [Z319-1, (6aR)-8-acryloyl-4-chloro-1-((S)-4-ethyl-2-methyl-5-oxopiperazin-1-yl)-3-(2-fluoro-6-hydroxyphenyl)-6,6a,7,8,9,10-hexahydro-12H-pyrazino[2,1-c]pyrido[3,4-f][1,4]oxazepin-12-one] stands more than 30 µM.
`C=CC(=O)N1CCN2C(=O)c3c(N4CCN(C(=O)C5CC5)C[C@@H]4C)nc(-c4c(O)cccc4F)c(Cl)c3OC[C@H]2C1` [Z320-1, (6aR)-8-acryloyl-4-chloro-1-((S)-4-(cyclopropanecarbonyl)-2-methylpiperazin-1-yl)-3-(2-fluoro-6-hydroxyphenyl)-6,6a,7,8,9,10-hexahydro-12H-pyrazino[2,1-c]pyrido[3,4-f][1,4]oxazepin-12-one]: the half-inhibitory concentration (IC50) worked out at 8.92 µM.
Under `C=CC(=O)N1CCN2C(=O)c3c(N4CCN(CC)C(C)(C)C4)nc(-c4c(O)cccc4F)c(Cl)c3OC[C@H]2C1` [Z322, (6aR)-8-actyloyl-4-chloro-3-(2-fluoro-6-hydroxyphenyl)-1-(4-ethyl-3,3-dimethylpiperazin-1-yl)-6,6a,7,8,9,10-hexahydro-12H-pyrazino[2,1-c]pyrido[3,4-f][1,4]oxazepin-12-one] stands 10.7 µM; under `C=CC(=O)N1CCN2C(=O)c3c(N4CC(N(C)C5COC5)CC4(C)C)nc(-c4c(O)cccc4F)c(Cl)c3OC[C@H]2C1` (stereo partly drawn) [Z326, (6aR)-8-acryloyl-4-chloro-1-(2,2-dimethyl-4-(methyl(oxetan-3-yl)amino)pyrrolidin-1-yl)-3-(2-fluoro-6-hydroxyphenyl)-6,6a,7,8,9,10-hexahydro-12H-pyrazino[2,1-c]pyrido[3,4-f][1,4]oxazepin-12-one], 8.84 µM.
The figure for `C=CC(=O)N1CCN2C(=O)c3c(N4CCN(C)C[C@@H]4C)nc(-c4nc(N)cc(C)c4C(F)(F)F)c(Cl)c3OC[C@H]2C1` [Z328-1, (R)-8-acryloyl-3-(6-amino-4-methyl-3-(trifluoromethyl)pyridin-2-yl)-4-chloro-1-((S)-2,4-dimethylpiperazin-1-yl)-6,6a,7,8,9,10-hexahydro-12H-pyrazino[2,1-c]pyrido[3,4-f][1,4]oxazepin-12-one] is 16.1 µM; for `C=CC(=O)N1CCN2C(=O)c3c(N4CCC(N(C)C)C4(C)C)nc(-c4c(O)cccc4F)c(Cl)c3OC[C@H]2C1` (stereo partly drawn) [Z334, (6aR)-8-acryloyl-4-chloro-1-(3-(dimethylamino)-2,2-dimethylpyrrolidin-1-yl)-3-(2-fluoro-6-hydroxyphenyl)-6,6a,7,8,9,10-hexahydro-12H-pyrazino[2,1-c]pyrido[3,4-f][1,4]oxazepin-12-one] it is 8.55 µM.
The figure for `C=CC(=O)N1CCN2C(=O)c3c(N4CC(C#N)CC4(C)C)nc(-c4c(O)cccc4F)c(F)c3OC[C@H]2C1` (stereo partly drawn) [Z335] is more than 30 µM; for `C=CC(=O)N1CCN2C(=O)c3c(N4CC[C@@H](OC)[C@@H]4C)nc(-c4c(O)cccc4F)c(Cl)c3OC[C@H]2C1` [Z338-1, (6aR)-8-acryloyl-4-chloro-3-(2-fluoro-6-hydroxyphenyl)-1-((2S,3R)-3-methoxy-2-methylpyrrolidin-1-yl)-6,6a,7,8,9,10-hexahydro-12H-pyrazino[2,1-c]pyrido[3,4-f][1,4]oxazepin-12-one] it is 12.3 µM.
